From paper PMC9221546, “New Phenylglycinamide Derivatives with Hybrid Structure as Candidates for New Broad-Spectrum Anticonvulsants” (Cells, 2022)
Where two headings read alike, the source gives them in different places.

Tests used:
[1] = test system: 6 Hz (32 mA) seizures in mice; experiment: 6 Hz (32 mA) psychomotor seizure model; type: in vivo; settings: Mus musculus, ip; for responders at 100 mg/kg: 100 mg/kg i.p., 0.5 h
Experimental: (§1) Adult male Albino Swiss mice that weighed between 22 and 26 g were used in the in vivo studies. They were housed under standardized housing conditions in colony cages and had free access to food as well as tap water. The animals were left to adapt under laboratory conditions for 7 days. All procedures involving animals and their care were performed in accordance with the current European Community and Polish legislation on animal experimentation.
(§2) In the initial screening studies, four mice per group were randomly assigned to each experimental group (each mouse was used only once). To evaluate the ED50 or TD50 values, 3–4 groups that consisted of eight animals were injected with various doses of tested compounds. The protective indexes (PIs) for the compounds that were investigated and reference ASDs were calculated by dividing the TD50 value, as determined in the chimney test (or rotarod test), by the respective ED50 value, as determined in the MES, scPTZ, or 6 Hz (32 mA or 44 mA) tests (PI = TD50/ED50). The PIs is a measure of the potential therapeutic window of the tested agent.
(§3) All substances were suspended in Tween 80 (1% aqueous solution) and administered i.p. as a single injection at a dose of 10 mL/kg. On each day of experimentation, fresh solutions were prepared. The results are summarized in Table S1 (screening data) and Table 2 (ED50, TD50, and PI values, see Section 3 Results and Discussion).
(§4) The detailed in vivo procedures are described elsewhere: the maximal electroshock seizure test (MES), the subcutaneous pentylenetetrazole seizure test (scPTZ), the 6 Hz psychomotor seizure model (32 mA and 44 mA), and the chimney test.
(§5) The basic animal seizure models such as the MES, 6 Hz (32 mA or 44 mA), and the scPTZ are still a standard in the discovery and development of new ASDs. In vivo screening approaches enable the identification of compounds with unidentified and potentially novel mechanisms of action besides substances with well-established pharmacodynamics. Bearing in mind the aforementioned facts, compounds 45–66 were initially studied in the MES test and in the 6 Hz seizure model (32 mA) after intraperitoneal (i.p.) administration at a screening dose of 100 mg/kg in mice at a time point of 0.5 h (the screening group consisted of four mice, the results obtained are summarized in Table S1). It should be stressed that the MES test is an experimental model of human tonic–clonic epilepsy as well as partial convulsions with or without secondary generalization, the 6 Hz model (32 mA) corresponds to human focal epilepsy, whereas the scPTZ test relates to human generalized absence or myoclonic seizures.
(§6) We also established the median toxic doses (TD50) in the chimney test 0.5 h post i.p. administration of these compounds. Both the aforementioned parameters enabled the calculation of the protective indexes (PIs).

TRPV1 (VR1) (h) = target: T1, TRPV1 (VR1) (h) (Homo sapiens, UniProt Q8NER1); experiment: TRPV1 (VR1) (h) antagonist effect functional assay; type: cell-based; settings: human recombinant CHO cells, read-out: % Inhibition of control agonist response, TRPV1 (antagonist effect)
T1 construct: host or cells: CHO
T1 sequence (Q8NER1 whole entry): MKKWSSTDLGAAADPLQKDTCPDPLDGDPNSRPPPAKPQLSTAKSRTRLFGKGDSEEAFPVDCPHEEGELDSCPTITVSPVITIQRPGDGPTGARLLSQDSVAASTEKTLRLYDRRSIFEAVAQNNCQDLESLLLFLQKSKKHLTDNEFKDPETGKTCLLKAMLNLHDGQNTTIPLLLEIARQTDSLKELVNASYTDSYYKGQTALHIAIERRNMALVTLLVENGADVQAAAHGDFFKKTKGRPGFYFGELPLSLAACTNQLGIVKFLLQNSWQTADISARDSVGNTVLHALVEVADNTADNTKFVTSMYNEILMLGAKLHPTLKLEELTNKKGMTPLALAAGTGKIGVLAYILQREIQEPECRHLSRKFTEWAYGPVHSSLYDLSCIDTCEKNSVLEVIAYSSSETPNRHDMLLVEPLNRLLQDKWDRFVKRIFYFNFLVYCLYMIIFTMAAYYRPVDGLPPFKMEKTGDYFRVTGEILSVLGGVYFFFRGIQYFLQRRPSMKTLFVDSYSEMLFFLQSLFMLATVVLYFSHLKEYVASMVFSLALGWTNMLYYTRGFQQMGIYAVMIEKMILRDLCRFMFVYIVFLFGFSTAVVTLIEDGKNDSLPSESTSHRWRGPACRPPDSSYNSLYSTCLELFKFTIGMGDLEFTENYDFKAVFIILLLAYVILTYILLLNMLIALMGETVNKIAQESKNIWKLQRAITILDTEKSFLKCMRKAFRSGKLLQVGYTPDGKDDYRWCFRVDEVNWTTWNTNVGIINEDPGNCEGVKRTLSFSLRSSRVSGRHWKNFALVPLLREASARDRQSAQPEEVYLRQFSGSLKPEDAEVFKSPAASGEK
Experimental: Binding/functional studies were carried out commercially in Eurofins Laboratories (Poitiers, France) and Eurofins Panlabs Discovery Services Taiwan, Ltd. (New Taipei City, Taiwan) using testing procedures that were reported previously (for details see Table S2).
Table S2. Radioligand binding and functional assays. […]
Assays were performed commercially in Eurofins Laboratories (Poitiers, France) or Eurofins Panlabs Discovery Services Taiwan, Ltd. (New Taipei City, Taiwan).
Table S3. In vitro TRPV1 channel antagonist activity for compounds 45–66 (concentration of 100 µM). […]
Cmpd % Inhibition of control Cmpd % Inhibition of control agonist responsea agonist responsea
*Source: human recombinant CHO cells. a Results showing activity higher than 50% are considered to represent […]
variability of the sign al around the control level. Assays were performed commercially in Eurofins Laboratories

[2] = test system: MES-induced seizures in mice; experiment: Maximal electroshock seizure (MES) test; type: in vivo; settings: for responders at 100 mg/kg: read-out: MES screening: number of mice protected/number of mice tested (converted)
Experimental: as §1, §2, §3, §4, §5, §6

[3] = four mice, read-out: protection in 6 Hz (32 mA) screening
[4] = read-out: 6 Hz (32 mA) screening: number of mice protected/number of mice tested (converted)
[5] = Mus musculus, ip, 100 mg/kg i.p., 0.5 h

| inhibition at 100 µM (TRPV1 (VR1) (h)) | melting point | Compound | responders at 100 mg/kg [1, 3] | responders at 100 mg/kg [1, 4] | responders at 100 mg/kg [2, 5] | ED50 ([1]; mice, pretreatment time 0.5 h, (95% confidence limits)) | protection in MES screening ([2]; 100 mg/kg i.p., 0.5 h, four mice) | ED50 ([2]; Mus musculus, ip, mice, pretreatment time 0.5 h, (95% confidence limits)) |
| --- | --- | --- | --- | --- | --- | --- | --- | --- |
| 116% | – | CC(=O)NC(C(=O)N1CCN(c2ccccc2Cl)CC1)c1ccccc1 (centres unmarked) [Compound 46, N-(2-(4-(2-chlorophenyl)piperazin-1-yl)-2-oxo-1-phenylethyl)acetamide] | 50% | 50% | 0% | – | – | – |
| 127% | 133.3 to 134.6 °C | CC(=O)NC(C(=O)N1CCN(c2ccc(Cl)cc2)CC1)c1ccccc1 (centres unmarked) [Compound 48, N-(2-(4-(4-chlorophenyl)piperazin-1-yl)-2-oxo-1-phenylethyl)acetamide] | 75% | 75% | 25% | 60.1 mg/kg | 25% | > 150 mg/kg |
| 135% | – | CC(=O)NC(C(=O)N1CCN(c2ccc(Cl)c(Cl)c2)CC1)c1ccccc1 (centres unmarked) [Compound 49, N-(2-(4-(3,4-dichlorophenyl)piperazin-1-yl)-2-oxo-1-phenylethyl)acetamide] | – | 25% | 0% | – | – | – |
| -2.5% | – | CC(=O)NC(C(=O)N1CCN(c2cc(Cl)cc(C(F)(F)F)c2)CC1)c1ccccc1 (centres unmarked) [Compound 51, N-(2-(4-(3-chloro-5-(trifluoromethyl)phenyl)piperazin-1-yl)-2-oxo-1-phenylethyl) acetamide] | – | 25% | 0% | – | – | – |
| 90.9% | – | CC(=O)NC(C(=O)N1CCN(c2ccccc2C(F)(F)F)CC1)c1ccccc1 (centres unmarked) [Compound 52, N-(2-oxo-1-phenyl-2-(4-(2-(trifluoromethyl)phenyl)piperazin-1-yl)ethyl)acetamide] | 50% | 50% | 0% | – | – | – |
| 128% | – | CC(=O)NC(C(=O)N1CCN(c2ccc(C(F)(F)F)cc2)CC1)c1ccccc1 (centres unmarked) [Compound 54, N-(2-oxo-1-phenyl-2-(4-(4-(trifluoromethyl)phenyl)piperazin-1-yl)ethyl)acetamide] | 50% | 50% | 0% | – | – | – |
| 57.4% | – | CC(=O)NC(C(=O)N1CCN(c2cccc(C)c2)CC1)c1ccccc1 (centres unmarked) [Compound 56, N-(2-oxo-1-phenyl-2-(4-(m-tolyl)piperazin-1-yl)ethyl)acetamide] | – | 25% | 0% | – | – | – |
| 43.7% | – | CC(=O)NC(C(=O)N1CCN(c2cccc(C(F)F)c2)CC1)c1ccccc1 (centres unmarked) [Compound 57, N-(2-(4-(3-(difluoromethyl)phenyl)piperazin-1-yl)-2-oxo-1-phenylethyl)acetamide] | – | 25% | 0% | – | – | – |
| 92% | – | CC(=O)NC(C(=O)N1CCN(c2cccc(-c3ccccc3)c2)CC1)c1ccccc1 (centres unmarked) [Compound 58, N-(2-(4-([1,1’-biphenyl]-3-yl)piperazin-1-yl)-2-oxo-1-phenylethyl)acetamide] | 50% | 50% | 0% | – | – | – |
| 20.1% | – | COc1cccc(N2CCN(C(=O)C(NC(C)=O)c3ccccc3)CC2)c1 (centres unmarked) [Compound 59, N-(2-(4-(3-methoxyphenyl)piperazin-1-yl)-2-oxo-1-phenylethyl)acetamide] | – | – | 0% | – | – | – |
| 52.5% | – | CC(=O)NC(C(=O)N1CCN(c2cccc(Oc3ccccc3)c2)CC1)c1ccccc1 (centres unmarked) [Compound 61, N-(2-oxo-2-(4-(3-phenoxyphenyl)piperazin-1-yl)-1-phenylethyl)acetamide] | – | 25% | 0% | – | – | – |
| -2.8% | 147.8 to 148.9 °C | CC(=O)NC(C(=O)N1CCN(c2ncccc2C(F)(F)F)CC1)c1ccccc1 (centres unmarked) [Compound 63, N-(2-oxo-1-phenyl-2-(4-(3-(trifluoromethyl)pyridine-2-yl)piperazin-1-yl)ethyl)acetamide] | – | – | 0% | – | – | – |
